This is an account of results in PubChem BioAssay (NCI).

Test systems include HL-60(TB) leukemia; TK-10 renal; SNB-19 CNS; UACC-257 melanoma; NCI-H23 lung; M14 melanoma; A549 NSCLC; SF-539 CNS; SF-295 CNS; NCI-H522 lung; HOP-62 NSCLC; OVCAR-5 ovarian.
Holding throughout (assay): inhibition of tumour cell growth, NCI panel, 384-well format

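GI50 is the concentration that inhibits growth by half. Definition used: TGI = concentration required for complete inhibition of growth.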

With `C[C@@H]1CN(CC(=O)N2CC(C)(C)c3nc(CO)c(Cc4ccc(F)cc4)cc32)[C@@H](CN2CCOC[C@H]2C)CN1`, the GI50 in the assay on HL-60(TB) leukemia was 4.54 µM; in the assay on TK-10 renal it was 27.9 µM; in the assay on SNB-19 CNS, 99.7 µM; in the assay with UACC-257 melanoma, 16.1 µM; with NCI-H23 lung, 24.8 µM; in the assay with M14 melanoma it was 17.2 µM. Further, the GI50 with A549 NSCLC is more than 69.2 µM; in the assay on SF-539 CNS, 32.4 µM; with SF-295 CNS, 42 µM; in the assay with NCI-H522 lung it was 14.2 µM; with HOP-62 NSCLC, 17.9 µM; with OVCAR-5 ovarian, 38.7 µM. Moreover, the TGI was 18.9 µM with HL-60(TB) leukemia; 52.9 µM in the assay with TK-10 renal; more than 100 µM in the assay with SNB-19 CNS; 29.7 µM in the assay with UACC-257 melanoma; 99.2 µM in the assay with NCI-H23 lung; 31.1 µM in the assay on M14 melanoma. The TGI in the assay on A549 NSCLC was more than 100 µM; with SF-539 CNS, 67.2 µM; with SF-295 CNS, more than 81.4 µM; in the assay with NCI-H522 lung, 32.4 µM; in the assay with HOP-62 NSCLC it was more than 61.2 µM; in the assay with OVCAR-5 ovarian, 99.8 µM.
